Measurements: patent US20260116921A1, “PEPTIDE INHIBITORS OF INTERLEUKIN-23 RECEPTOR AND THEIR USE TO TREAT INFLAMMATORY DISEASES” (priority 2018, published 2026)

Legend:
in vitro [1] = assay type: in vitro ADME; design: half-life: dose or concentration left out as unconfirmed; conditions: pH 6.8, 37° C., § matrix is 100 fold dilution of standard SIF concentration; for SIF t½: simulated intestinal fluid, pancreatin
Method: SIF was prepared by adding 6.8 g of monobasic potassium phosphate and 10.0 g of pancreatin to 1.0 L of water. After dissolution, the pH was adjusted to 6.8 using NaOH. DMSO stocks (2 mM) were first prepared for the test compounds. Aliquots of the DMSO solutions were dosed into 6 individual tubes, each containing 0.5 mL of SIF, which is pre-warmed to 37° C. The final test compound concentration was 20 M. The vials were kept in a benchtop Thermomixer® for the duration of the experiment. At each timepoint (0, 5, 10, 20, 40, 60, or 360 minutes or 24 hours), 1.0 mL of acetonitrile containing 1% formic acid was added to one vial to terminate the reaction. Samples were stored at 4° C. until the end of the experiment. After the final timepoint is sampled, the tubes were mixed and then centrifuged at 3,000 rpm for 10 minutes. Aliquots of the supernatant were removed, diluted 1:1 into distilled water containing internal standard, and analyzed by LCMS/MS. Percent remaining at each timepoint was calculated based on the peak area response ratio of test to compound to internal standard. Time 0 was set to 100%, and all later timepoints were calculated relative to time 0. Half-lives were calculated by fitting to a first-order exponential decay equation using Graphpad.

[2] = Stability in simulated gastric fluid (SGF); assay type: in vitro ADME; conditions: pH=2, 37° C., 20 μM peptide; for half-life at 20 μM: pig (pepsin), simulated gastric fluid (SGF) with porcine pepsin, read-out: SGF t½ (converted)
Method: SGF was prepared by adding 20 mg NaCl, 32 mg porcine pepsin (MP Biochemicals, catalog 02102599), and 70 μl HCl to 10 ml water (final pH=2). Aliquots of SGF (0.5 ml each) were pre-warmed at 37° C. To start the reaction, 1 μl of peptide stock solution (10 mM in DMSO) was added to 0.5 ml SGF and thoroughly mixed such that the final peptide concentration was 20 μM. The reactions were incubated at 37° C. with gentle shaking. At each time point (0, 15, 30, 60 min) 50 μl aliquots were removed and added to 200 ul acetonitrile containing 0.1% formic acid to quench the reaction. Samples are stored at 4° C. until the end of the experiment and centrifuged at 10,000 rpm for 5 minutes. Aliquots of the supernatant were removed, diluted 1:1 into distilled water containing internal standard, and analyzed by LCMS/MS. Percent remaining at each timepoint was calculated based on the peak area response ratio of test to compound to internal standard. Time 0 was set to 100%, and all later timepoints were calculated relative to time 0. Half-lives were calculated by fitting to a first-order exponential decay equation using GraphPad.

IL-23R = target: T1, IL-23R (Homo sapiens, UniProt Q5VWK5); assay: DB cells IL23R pSTAT3 cell assay (pStat3 HTRF); assay type: cell-based
T1 sequence (Q5VWK5 24-629): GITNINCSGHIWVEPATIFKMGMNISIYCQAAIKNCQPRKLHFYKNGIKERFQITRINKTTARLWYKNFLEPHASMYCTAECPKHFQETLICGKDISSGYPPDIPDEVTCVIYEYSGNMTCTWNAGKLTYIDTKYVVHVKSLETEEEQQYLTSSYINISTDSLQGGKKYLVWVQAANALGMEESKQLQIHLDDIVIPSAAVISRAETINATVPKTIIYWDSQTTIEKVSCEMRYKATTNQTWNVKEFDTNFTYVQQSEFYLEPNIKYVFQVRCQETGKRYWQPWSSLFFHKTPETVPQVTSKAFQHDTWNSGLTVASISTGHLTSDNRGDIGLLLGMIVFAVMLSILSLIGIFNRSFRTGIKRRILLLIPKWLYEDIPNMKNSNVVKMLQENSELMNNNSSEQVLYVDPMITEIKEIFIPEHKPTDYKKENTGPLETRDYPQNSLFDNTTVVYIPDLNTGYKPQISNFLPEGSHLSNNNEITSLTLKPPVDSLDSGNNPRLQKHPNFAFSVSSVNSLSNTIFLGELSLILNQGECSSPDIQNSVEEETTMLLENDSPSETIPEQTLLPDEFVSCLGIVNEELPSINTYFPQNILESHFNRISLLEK
In short: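 HTRF readout of lysate pSTAT3 (Tyr705) after two-plate processing. Peptide dilution series co-incubated with IL-23 (0.5 nM final) on 5×10E5 IL-23R-expressing DB cells per well, 30 min, 37 °C.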

in vitro [3] = conditions: cynomolgus monkey, 20% fecal homogenate (supernatant), anaerobic, pH 6.8
in vitro [4] = conditions: human, 20% fecal homogenate (supernatant), anaerobic, pH 6.8
Method: Fecal homogenate (20%) was prepared by adding 4 mL of growth medium (1 liter contains 2 g peptone water powder, 2 g yeast extract, 0.1 g NaCl, 0.04 g KH2PO4, 0.01 g CaCl2·6H2O, 0.01 g MgSO4·7H2O, 2 mL Tween 80, 0.5 g bile salts, 0.5 g L-cysteine HCl, 2 g NaHCO3, and 10 μL Vitamin K, pH adjusted to 6.8, and sterilized by filtration through a 0.22 μm filter) to every gram of feces (pooled freshly collected human or cynomolgus monkey feces). The suspension was vortexed to break up large clumps, and homogenized using a bead mill homogenizer. Centrifuged the homogenate at 2800×g for 15 min. The supernatant is taken out and used for incubations. DMSO stocks (10 mM) were first prepared for the test compounds. Incubations were performed in an anaerobic chamber conditioned at 37° C. Aliquots of the DMSO solutions were dosed into 1.0 mL aliquots of 20% fecal homogenate, which are pre-warmed to 37° C. The final test compound concentration was 20 μM. At each timepoint (0, 20 min, 1, 3, 6, or 24 hours), 100 μL aliquot of each incubation mixture is taken out and added to separate tubes containing 300 μL of 50% acetonitrile/50% methanol and an internal standard to terminate the reaction. Samples were taken out of the anaerobic chamber and stored at 4° C. until the end of the experiment. After the final timepoint is sampled, the tubes were mixed and then centrifuged at 3,000 rpm for 10 minutes. Aliquots of the supernatant were removed, diluted 1:1 into distilled water containing 0.1% formic acid, and analyzed by LC/MS/MS. Percent remaining at each timepoint was calculated based on the peak area response ratio of test to compound to internal standard. Time 0 was set to 100%, and all later timepoints were calculated relative to time 0. Half-lives were calculated by fitting to a first-order exponential decay equation using Graphpad or Excel.

Structure (SMILES): CC(=O)NCCCC[C@H](NC(=O)[C@](C)(CC(C)C)NC(=O)[C@H](Cc1ccc2ccccc2c1)NC(=O)[C@H](Cc1ccc(OCCN)cc1)NC(=O)[C@H]1NC(=O)[C@H](CCC(N)=O)NC(=O)[C@H](Cc2c[nH]c3cc(Cl)ccc23)NC(=O)[C@H]([C@@H](C)O)NC(=O)[C@H](CC(N)=O)NC(=O)[C@@H](NC(C)=O)C(C)(C)SSC1(C)C)C(=O)N[C@@H](CC(N)=O)C(=O)N[C@@H](CC(N)=O)C(N)=O [compound 2]
- SIF t½ (in vitro [1]): 24 h
- half-life at 20 μM [2]: 13 h
- IC50 (IL-23R): 10 to 100 nM

Structure (SMILES): COc1cccc2[nH]cc(C[C@@H]3NC(=O)[C@H]([C@@H](C)O)NC(=O)[C@H](CC(N)=O)NC(=O)[C@@H](NC(C)=O)C(C)(C)SSC(C)(C)[C@@H](C(=O)N[C@@H](Cc4ccc(OCCN)cc4)C(=O)N[C@@H](Cc4ccc5ccccc5c4)C(=O)N[C@@](C)(CC(C)C)C(=O)N[C@@H](CCCCNC(C)=O)C(=O)N[C@@H](CC(N)=O)C(=O)N[C@@H](CC(N)=O)C(N)=O)NC(=O)[C@H](CCC(N)=O)NC3=O)c12 [compound 4]
- SIF t½ (in vitro [1]): 24 h
- half-life at 20 μM [2]: 9 h
- half-life at 20 μM (in vitro [3]): 2 h
- IC50 (IL-23R): 1 to 10 nM
- half-life at 20 μM (in vitro [4]): 6 h

Structure (SMILES): CC(=O)NCCCC[C@H](NC(=O)[C@](C)(CC(C)C)NC(=O)[C@H](Cc1ccc2ccccc2c1)NC(=O)[C@H](Cc1ccc(OCCN)cc1)NC(=O)[C@H]1NC(=O)[C@H](CCC(N)=O)NC(=O)[C@H](Cc2c[nH]c3cc(C)ccc23)NC(=O)[C@H]([C@@H](C)O)NC(=O)[C@H](CC(N)=O)NC(=O)[C@@H](NC(C)=O)C(C)(C)SSC1(C)C)C(=O)N[C@@H](CC(N)=O)C(=O)N[C@@H](CC(N)=O)C(N)=O [compound 5]
- SIF t½ (in vitro [1]): 24 h
- half-life at 20 μM [2]: 12 h
- half-life at 20 μM (in vitro [3]): 2 h
- IC50 (IL-23R): 1 to 10 nM
- half-life at 20 μM (in vitro [4]): 6 h

Structure (SMILES): CC(=O)NCCCC[C@H](NC(=O)[C@](C)(CC(C)C)NC(=O)[C@H](Cc1ccc2ccccc2c1)NC(=O)[C@H](Cc1ccc(OCCN)cc1)NC(=O)[C@H]1NC(=O)[C@H](CCC(N)=O)NC(=O)[C@H](Cc2c[nH]c3ccc(F)cc23)NC(=O)[C@H]([C@@H](C)O)NC(=O)[C@H](CC(N)=O)NC(=O)[C@@H](NC(C)=O)C(C)(C)SSC1(C)C)C(=O)N[C@@H](CC(N)=O)C(=O)N[C@@H](CC(N)=O)C(N)=O [compound 7]
- SIF t½ (in vitro [1]): 24 h
- half-life at 20 μM [2]: 12 h
- IC50 (IL-23R): 10 to 100 nM

Structure (SMILES): CC(=O)NCCCC[C@H](NC(=O)[C@](C)(CC(C)C)NC(=O)[C@H](Cc1ccc2ccccc2c1)NC(=O)[C@H](Cc1ccc(OCCN)cc1)NC(=O)[C@H]1NC(=O)[C@H](CCC(N)=O)NC(=O)[C@H](Cc2c[nH]c3c(F)cccc23)NC(=O)[C@H]([C@@H](C)O)NC(=O)[C@H](CC(N)=O)NC(=O)[C@@H](NC(C)=O)C(C)(C)SSC1(C)C)C(=O)N[C@@H](CC(N)=O)C(=O)N[C@@H](CC(N)=O)C(N)=O [compound 8]
- SIF t½ (in vitro [1]): 24 h
- half-life at 20 μM [2]: 15 h
- IC50 (IL-23R): 10 to 100 nM

Structure (SMILES): CC(=O)NCCCC[C@H](NC(=O)[C@](C)(CC(C)C)NC(=O)[C@H](Cc1c[nH]c2cc(Cl)ccc12)NC(=O)[C@H](Cc1ccc(OCCN)cc1)NC(=O)[C@H]1NC(=O)[C@H](CCC(N)=O)NC(=O)[C@H](Cc2c[nH]c3ccccc23)NC(=O)[C@H]([C@@H](C)O)NC(=O)[C@H](CC(N)=O)NC(=O)[C@@H](NC(C)=O)C(C)(C)SSC1(C)C)C(=O)N[C@@H](CC(N)=O)C(=O)N[C@@H](CC(N)=O)C(N)=O [compound 13]
- half-life (in vitro [1]; simulated intestinal fluid (SIF) with pancreatin, read-out: SIF t½ (converted)): 17 h
- SGF t½ ([2]; porcine pepsin): 24 h
- IC50 (IL-23R): 1 to 10 nM
